# How the values were obtained:
# Assay type in all cases: cell-based
# RAJI cells = test: Matador assay, Digitonin-induced death of RAJI cells expressing luciferase reporters
# Method: A similar experiment was conducted with K562, HEL-91-1-17 and RAJI cells stably expressing NLuc from pLENTI-NLuc-AcV5-Blasticidin-Pa08 vector (SEQ ID NO: 92). Cells plated in 30 μl of medium per well were either treated with 30 μl of PBS or 30 μl of PBS containing Digitonin (final concentration 30 μg/ml) for 1 hour at 37° C., in a 5% CO2 incubator. For measurement of NLuc activity, 0.5×CTZ assay buffer was added by automated injector directly to each well of the 384-well white plate containing cells in 60 μl of volume (30 μl of RPMI-10% FBS+30 μl of Digitonin) without prior cell lysis and plates were read for luminescence using BioTek synergy H4 plate reader in well mode.
# (§1) Briefly, 20000 cells in 20 μl media were plated in each well of a 384 well plate followed by addition of 20 μl of Digitonin (final concentration 30 μg/ml) or media alone (20 μl) and incubated for 90 minutes.
# 293FT cells = test: Matador assay, Digitonin-induced death of transiently transfected 293FT cells
# Method: The 293FT cells were transfected in a 24-well plate with various expression plasmids (500 ng/well) using calcium phosphate. Approximately, 18 hours post-transfection, the cells were either left untreated or treated with 30 μg/ml Digitonin to induce cell death, followed by the detection of luminescence as described under luciferase assays.
# 293FT cells were transfected with pLenti-CBGRluc construct in a […]. 72 hours post-transfection, cells were trypsinized and plated in 6-well plates. For induction of cell death, cells in some wells were treated with Digitonin (50 μg/mL final concentration). CBGRluc activity was determined by adding assay buffer (1 mM D-Luciferin, 25 mM glycylclycine, 15 mM potassium phosphate, 15 mM MgSO4, 4 mM EGTA, 2 mM ATP, and 1 mM DTT) in a well mode. The assay buffer with substrate was added at 1:1 (v/v) ratio.
# The MLuc7 cDNA also carried M43L and M110L substitutions. […] The mammalian expression vectors encoding the non-secretory forms of the above luciferase cDNAs were transiently transfected into 293FT cells by calcium phosphate co-precipitation method. […] 6 wells were treated with Digitonin and 6 wells were left untreated. Luciferase activity was measured by addition of coelentrazine containing assay buffer directly to each well.
# The indicated luciferase constructs in either retroviral or lentiviral vectors were transiently transfected into 293FT cells by calcium phosphate co-precipitation method. Approximately 18 hours post-transfection, cells were treated with Digitonin for 90 minutes or left untreated (control). […] Essentially a similar procedure was used with a construct encoding Lucia-Luc.
# 293FT cells were transiently transfected with the above construct or left untransfected. Approximately 18 hours post-transfection, cells were treated for 90 min with Digitonin (final concentration 30 μg/ml) or left untreated. After the 90 minute incubation, 200 μl supernatant was collected from each well in a 1.5 ml tubes. The tubes were spun down at 1500 RPM for 5 minutes.
# We next examined if the Matador cytotoxicity assay developed by us is limited to only luciferase proteins or can be adapted to any other protein that is not endogenously expressed by the target cells. For this purpose, we transiently transfected 293FT cells by calcium phosphate co-precipitation method with an expression plasmid encoding enhanced green fluorescent protein (GFP) or HA-epitope tagged-mCherry. Approximately 24 post-transfection, the transfected cells were either left untreated or treated with Digitonin to induce cell death. The cells were collected in tubes and centrifuged at 2,000 rpm for 5 min. Cell supernatant was collected in a new set of tubes and cell pellet were washed with cold phosphate-buffered saline twice and lysed in lysis buffer containing 20 mM Tris-HCl, pH 8.0, 500 mM NaCl, 0.25% Triton X-100, 1 mM EDTA, 10 mM β-glycophosphate, 10 mMNaF, 1 mM DTT, 1× protease inhibitor mixture (Roche Molecular Biochemicals) at 4° C. for 30 min. After incubation, the mixture was pippetted five or six times to disperse the cells followed by centrifugation at 14,000 rpm at 4° C. for 10 min. The cell lysates were collected as whole cell extracts, and protein concentration was determined by using Bio-Rad protein assay reagent. 30 μl of cell supernatant or 30 μg of whole cell extracts were heated in the presence of SDS-PAGE sample buffer and loaded on 10% SDS-PAGE gel followed by transferring to nitrocellulose membranes. These membranes were incubated with primary antibodies against specified proteins in Tris-buffered-saline with Tween 20 followed by incubation with secondary antibody (IRDye 800CW conjugates of goat anti-rabbit IgG; Li-Cor) and development with Odyssey Infrared Imaging System CLx (Li-Cor Biosciences). The secondary antibody was used at a 1:10,000 dilution.
# Nalm6 cells = test: Dual reporter Matador assay, Digitonin-induced death of Nalm6 cells; conditions: Nalm6 cells expressing both GLuc and FfLuc; Digitonin 30 μg/ml, 90 minutes
# Method: as §1
# [1] = tested on: primary leukemia blast cells (Chrt3); test: Matador assay on primary leukemia blast cells expressing GLuc; conditions: two additional primary leukemia samples; Digitonin; present tense
# Method: To examine if this assay can be also used to measure death of primary cells, leukemic blasts were isolated from a de-identified leukemia patient using Ficoll-Hypaque gradient centrifugation and then transduced with pLenti-EF1a-Pac-T2A-Gluc-B07 (SEQ ID NO: 94) lentiviral vector to generate primary leukemia blast cells (Chrt3) expressing the non-secretory form of GLuc cDNA. Briefly, 1 million primary leukemic blasts were cultured in XVIVO medium in a 6-well plate in the presence of GLuc lentiviral supernatant and polybrene (5 μg/ml) and centrifuged at 2,800 rpm at 32° C. for 2 hours followed by incubation of cells at 37° C. for 24 hours in XVIVO medium. To measure the killing of Chrt3-GLuc cells, the transduced cells were plated at a density of 20,000 cells per well in 30 μl of medium in triplicate in a white 384 well plate and co-cultured with the effector cells for 4 hours at an E:T ratio of 0.125:1. Cell death was assayed by the single-step homogenous GLuc assay by injecting 0.5×CTZ assay buffer in well mode. […] Two additional primary leukemia samples are infected with GLuc encoding lentiviral vector and cell death is induced by treatment with Digitonin.
compound,measurement,setting,value
C[C@@H]1CC[C@@]2(OC1)O[C@H]1[C@@H](O)[C@H]3[C@@H]4CC[C@H]5C[C@@H](O[C@@H]6O[C@H](CO)[C@H](O[C@@H]7O[C@H](CO)[C@@H](O)[C@H](O[C@@H]8OC[C@@H](O)[C@H](O)[C@H]8O)[C@H]7O[C@@H]7O[C@H](CO)[C@H](O)[C@H](O[C@@H]8O[C@H](CO)[C@@H](O)[C@H](O)[C@H]8O)[C@H]7O)[C@H](O)[C@H]6O)[C@H](O)C[C@]5(C)[C@H]4CC[C@]3(C)[C@H]1[C@@H]2C [Digitonin],TLuc activity,"RAJI cells; RAJI cells expressing TurboLuc16, Digitonin 90 min",increase in TLuc activity
same,GLuc luciferase activity,"RAJI cells; RAJI cells stably expressing GLuc from MSCVhygro-GLuc-HA-G02, Digitonin",Essentially similar results
same,NLuc activity,"RAJI cells; RAJI cells stably expressing NLuc, Digitonin 30 μg/ml, 1 hour",increase in NLuc activity
same,FfLuc and GLuc activities,"RAJI cells; Raji cells expressing both GLuc and FfLuc, Digitonin 30 μg/ml, 90 minutes",increase in both FfLuc and GLuc activities
same,luciferase activity,"293FT cells; FfLuc construct, Digitonin 30 μg/ml, 90 min, supernatant",increase in luciferase activity
same,fluorescence in cell supernatant,"293FT cells; GFP and mCherry-HA transfected, Digitonin",significant increase in fluorescence
same,GFP release in the supernatant fraction (Western blotting),"293FT cells; GFP transfected, Digitonin",increase in GFP release in the supernatant fraction
same,mCherry release in the supernatant fraction (Western blotting),"293FT cells; HA-mCherry transfected, Digitonin",increase in mCherry release in the supernatant fraction
same,LucPPe luciferase activity,"293FT cells; LucPPe-146-1H2 transient transfection, Digitonin",increase in LucPPe luciferase activity
same,Luc activity,"293FT cells; MYR-GGS-GLuc construct, Digitonin 30 μg/ml, 90 min, supernatant",increase in Luc activity
same,increase in alkaline phosphatase activity in the cell supernatants,"293FT cells; constructs encoding human embryonal alkaline phosphatase lacking the secretory signal, Digitonin 90 min",greater than 3 fold
same,alkaline phosphatase activity,"293FT cells; empty vector or plasmid encoding the secretory form of human embryonal alkaline phosphatase, Digitonin 90 min",little or no increase
same,CBGRluc activity,"293FT cells; pLenti-CBGRluc transfected, Digitonin 50 μg/mL",increase in CBGRluc activity
same,luciferase activity in the cell-free supernatants,"293FT cells; transfected with GLuc, NLuc, MLuc7, TLuc16, Paluc1, Htluc1, Loluc, RLuc, Lucia-Luc, Digitonin 90 minutes",increase in luciferase activity
same,luciferase activity,"293FT cells; transfected with HtLuc, LoLuc, MLuc7, Digitonin",increase in luciferase activity
same,FfLuc and GLuc activities,Nalm6 cells,increase in both FfLuc and GLuc activities
same,GLuc activity,[1],increase in GLuc activity
